Data as given in publication PMC9921063 (Molecules, 2023).

Legend:
[1] = ABTS radical scavenging assay; conditions: antiradical scavenging; mean ± S.D.
Method: (§1) Three methods were used for the assessing antioxidant properties of the selected compounds, which are 2.2-diphenyl-1-picrylhydrazyl (DPPH), 2.2’-azino-bis (3-ethylbenzothiazoline-6-sulphonic acid) (ABTS) radicals scavenging, and β-carotene linoleic acid bleaching assay. […] The control compound was butylated hydroxytoluene (BHT), which is a potent antioxidant.
ABTS radical scavenging activity was conducted by referring to the method of Re et al..
(§2) All the assays used for antioxidant determination (DPPH, ABTS, and β-carotene bleaching assay) were performed simultaneously three times in the same conditions. The results obtained in µM mL^−1 average of the three experiments.

[2] = system: Vero cell; test: In vitro cytotoxicity assay, MTT; format: cell-based; conditions: mean ± S.D.
Method: MTT colorimetric technique was carried out for cytotoxicity evaluation according to the methods mentioned in our previously published article. An amount of 96 well plates with complete were used for the culture of the cells. FLUOstar OPTIMA spectrophotometer was applied for colorimetric analysis and in vitro evaluation.

[3] = system: S. aureus; test: Agar well diffusion, inhibition zone; format: cell-based
Method: (§3) Microorganisms, media and growth conditions, agar well diffusion method for inhibition zone determination (IZ) and minimum inhibitory concentration (MIC) were performed according to the literature work.
(§4) The synthesized compounds were examined in vitro for their antimicrobial activity against Six standard microorganisms of ATCC, two Gram positive bacteria S. aureus and Listeria monocytogenes, three Gram negative bacteria Esherichia coli, Pseudomonas aeruginosa and Salmonella typhimurium and the fungus C. albicans. Bacteria were cultured in Luria-Bertani (LB) medium, while Sabouraud agar was used for culturing C. albicans and the assay conducted according to our previous techniques. The results were the average of 3 readings.

[4] = system: C. albicans; test: Agar well diffusion, inhibition zone; format: cell-based
Method: as §3, §4

[5] = system: P. aeruginosa; test: Agar well diffusion, inhibition zone; format: cell-based, Pseudomonas aeruginosa
Method: as §3, §4

[6] = system: all examined microorganisms; test: Antimicrobial activity, summary over all examined microorganisms; format: cell-based
Method: as §3, §4

[7] = system: L. monocytogenes; test: Agar well diffusion, inhibition zone; format: cell-based, Listeria monocytogenes
Method: as §3, §4

[8] = system: T. gondii tachyzoites RH strain; test: Antitoxoplasmal assay; format: cell-based, Toxoplasma gondii; conditions: mean ± S.D.
Method: This assay was carried out according to the methods mentioned in our previously published article. Vero cells line (ATCC® CCL81™, USA) were used for the serial passage and cultivation of T. gondii tachyzoites RH strain, complete RPMI 1640 medium with heat-inactivated 10% FBS was used for the culture and in vitro evaluation, while atovaquone (ATO) was used as reference drug. The results were expressed in IC50 of three independent readings, followed by the selectivity index (SI) calculation by dividing CC50 over IC50 of the same compound [56].

[9] = β-Carotene linoleic acid bleaching assay; conditions: β-carotene bleaching test; mean ± S.D.
Method: as §1
β-Carotene bleaching test was conducted following the method described by Pratt’s.
as §2

[10] = system: hepatocellular carcinoma cell lines (HepG-2); test: In vitro anticancer proliferation (cytotoxicity) assay; format: cell-based, human; conditions: hepatocellular carcinoma cells; mean ± S.D.
Method: (§5) The selected compound was investigated for its cytotoxic properties against HCT-116 and HepG-2 (cancer cell lines of ATCC, Rockville, MD, USA). Vinblastine was applied as reference drug. The assay was conducted according to the methods described by Mossman and our recently published data.

[11] = system: colon carcinoma cells (HCT-116); test: as above; format: cell-based, human; conditions: mean ± S.D.
Method: as §5

[12] = system: L. major promastigotes; test: Antileishmanial assay, promastigotes; format: cell-based, Leishmania major; conditions: mean ± S.D.
Method: (§6) This assay was carried out according to the methods mentioned in our previously published article. L. major promastigotes were isolated locally from an indoor patient in 2016, liquid nitrogen was used for the preservation of the parasites, and BALB/c mice were used for the maintenance of the parasites and production of L. major amastigotes. Phenol red-free RPMI 1640 medium (Invitrogen, USA) with 10% FBS was used for the culture and in vitro evaluation, while amphotericin B (AmB) was used as reference drug.

[13] = system: E. coli; test: Agar well diffusion, inhibition zone; format: cell-based, Esherichia coli
Method: as §3, §4

[14] = system: S. aureus; test: Minimum inhibitory concentration (MIC); format: cell-based
Method: as §3, §4

[15] = system: C. albicans; test: Minimum inhibitory concentration (MIC); format: cell-based
Method: as §3, §4

[16] = system: L. monocytogenes; test: Minimum inhibitory concentration (MIC); format: cell-based, Listeria monocytogenes
Method: as §3, §4

[17] = system: S. typhimurium; test: Minimum inhibitory concentration (MIC); format: cell-based, Salmonella typhimurium
Method: as §3, §4

[18] = system: L. major amastigotes; test: Antileishmanial assay, amastigotes; format: cell-based, Leishmania major; conditions: mean ± S.D.
Method: as §6

[19] = DPPH radical scavenging activity; conditions: antiradical scavenging; mean ± S.D.
Method: as §1
Briefly, various amounts of produced compounds were diluted with ultrapure water after being dissolved in dimethylsulfoxide (DMSO)/water (1/9; v/v) (1, 0.5, 0.250, 0.125, 0.0625, 0.03125 mg mL^−1). The samples were then combined with […] of a 4% (w/v) solution of the DPPH radical in ethanol. The combination was incubated for 30 min. at room temperature and in the dark. Spectrophotometric analysis was used to calculate the scavenging capacity by comparing the decrease in absorbance at 517 nm to a blank.
as §2

[20] = system: S. typhimurium; test: Agar well diffusion, inhibition zone; format: cell-based, Salmonella typhimurium
Method: as §3, §4

[21] = biological target: TyrE (Agaricus bisporus, UniProt C7FF04); format: biochemical
TyrE, sequence (C7FF04 1-392): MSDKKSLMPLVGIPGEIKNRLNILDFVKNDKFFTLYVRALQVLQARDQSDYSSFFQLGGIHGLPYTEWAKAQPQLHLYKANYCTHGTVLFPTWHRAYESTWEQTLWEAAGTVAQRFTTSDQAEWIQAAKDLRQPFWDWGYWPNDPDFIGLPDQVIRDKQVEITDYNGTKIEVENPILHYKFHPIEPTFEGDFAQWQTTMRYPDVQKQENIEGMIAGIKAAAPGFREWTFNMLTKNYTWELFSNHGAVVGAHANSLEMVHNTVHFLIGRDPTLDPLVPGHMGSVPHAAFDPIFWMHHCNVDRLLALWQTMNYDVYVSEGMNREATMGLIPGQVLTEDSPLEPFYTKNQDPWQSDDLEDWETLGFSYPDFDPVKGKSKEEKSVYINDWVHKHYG

[22] = against all examined microorganisms

5,6-Dimethyl-[1,3-(3,5)dimethyl-4-methyl)-benzimidazol-2-ylidene](p-cymene) ruthenium(II) chloride [Compound 3d]
ABTS IC50 [1]: 18.17 ± 3.0 µM mL^−1
CC50 Toxicity (Vero Cell) [2]: 1.8 ± 0.2 µM mL^−1
Inhibition zone [3]: 26 mm
Inhibition zone [4]: 27 mm
Inhibition zone [5]: 27 mm
IZ (inhibition zone) [6, 22]: over 25 mm
MIC (minimum inhibitory concentration) [6, 22]: < 4 µM
Inhibition of the examined indicator organisms ([6]; all of the examined indicator organisms): inhibited
Inhibition zone [7]: 28 mm
Toxoplasma IC50 [8]: 1.4 ± 0.1 µM mL^−1
β-Carotene IC50 [9]: 92.25 ± 11.9 µM mL^−1
IC50 HepG-2 [10]: 12.75 ± 1.7 µM mL^−1
IC50 HCT-116 [11]: 8.45 ± 0.9 µM mL^−1
Promastigotes IC50 [12]: 0.32 ± 0.04 µM mL^−1
Inhibition zone [13]: 29 mm
MIC [14]: 1.95 µM mL^−1
MIC [15]: 1.25 µM mL^−1
MIC [16]: 3.9 µM mL^−1
MIC [17]: 1.95 µM mL^−1
Amastigote IC50 [18]: 1.4 ± 0.3 µM mL^−1
DPPH IC50 [19]: 32.18 ± 5.4 µM mL^−1
Inhibition zone [20]: 27 mm
TyrEI IC50 [21]: 24.95 ± 3.7 µM mL^−1
